Source: patent publication US8372846B2, “Co-crystals and pharmaceutical compositions comprising the same” (Vertex Pharmaceuticals Incorporated, priority 2006, dated 2013)

Test: Solubility analyses in simulated intestinal fluid (HPLC of supernatant; solid form by XRPD)
Format: physicochemical
Conditions: simulated intestinal fluid (pH 6.8); for XRPD (solid form): room temp.; for C, mg/mL Control: room temperature, VX-950 equivalents
Experimental: An aliquot of the sample was placed in a tube and then an aqueous medium was added. At set time points, an aliquot of supernatant was withdrawn, filtered through 0.45 PTFE micron filter (Millex, LCR, Millipore) and processed for high performance liquid chromatography (HPLC) analysis (Agilent 1100; Palo Alto, Calif., USA). The system was equipped with an autosampler set at 25° C. For the sample handling, an aliquot of the sample was diluted with acetonitrile at 1 to 1 by v/v ratio. The samples were run isocratically with the detector set at 270 nm. The column was XTerra® Phenyl column 150 mm×4.6 mm, 3.5 μm Particle Size (P/N 186001144) (Waters, Milford, Mass., USA). The mobile phase was potassium phosphate buffer (10 mM, pH=7.0):methanol at 60:40 (v/v) ratio. The run was done at the flow-rate of 1 mL/min and was completed within 15 min.

Question: For CCC[C@H](NC(=O)[C@@H]1[C@H]2CCC[C@H]2CN1C(=O)[C@@H](NC(=O)[C@@H](NC(=O)c1cnccn1)C1CCCCC1)C(C)(C)C)C(=O)C(=O)NC1CC1 [VX-950 alone], which “XRPD (solid form)” value (24 hours) is on record?
Answer: Crystallizes by 24 hour

Question: What about the “XRPD (solid form)” value (up to 2 hours) of the same molecule?
Answer: Amorphous (up to 2 hours

Question: And the “C, mg/mL Control” value (24 hour)?
Answer: Not

Question: What about the “C, mg/mL Control” value (line with XRPD 'by about 4 hours') of the same molecule?
Answer: 0.0183 mg/mL

Question: What about the “C, mg/mL Control” value (line with XRPD 'up to 2 hours') of the same molecule?
Answer: 0.025 mg/mL
